According to patent US9993001B2, “Herbicidal composition” (ISHIHARA SANGYO KAISHA, LTD., priority 2014, dated 2018):

Assays:
Type in all cases: in vivo
polygonaceae weeds = assay: Test Example 10: corn field, soil treatment, metobromuron + pendimethalin; details: 600 g/ha; soil treatment, corn field; 49th day after treatment; read-out: Growth inhibition rate of Polygonaceae weeds (%) Measured value
From the text: (§1) When the herbicidal activity in a case where two active ingredients are combined, is larger than the simple sum of the respective herbicidal activities of the two active ingredients (the expected activity), it is called a synergistic effect. The activity expected by the combination of two active ingredients can be calculated as follows (Colby S. R., “Weed”, vol. 15, p. 20-22, 1967). E=α+β−(α×β[…]) where α: growth inhibition rate when treated with x (g/ha) of herbicide X, • β: growth inhibition rate when treated with y (g/ha) of herbicide Y, • E: growth inhibition rate expected when treated with x (g/ha) of herbicide X and y (g/ha) of herbicide Y.
(§2) On the 19th day after treatment, the state of growth of barnyardgrass was visually observed and evaluated in accordance with the following standards. The growth inhibition rate (%) [measured value] and the growth inhibition rate (%) [calculated value] calculated by the Colby's method, are shown in Table 2.
(§3) Growth inhibition rate (%)=inhibition rate) (%) of 0 (equivalent to the non-treated area) to 100 (complete kill) […]
On the 49th day after treatment, the state of growth of polygonaceae weeds which occurred naturally, was visually observed and evaluated in the same manner as in Test Example 1, The results are shown in Table 11.

[1] = test system: large crabgrass (Digitaria sanquinalis L.); assay: Test Example 28: pot, soil treatment, metobromuron + pendimethalin; details: 62.5 g/ha, soil treatment, pot, 27th day after treatment, read-out: Growth inhibition rate of large crabgrass (%) Measured value
From the text: as §1, §2
(§4) Growth inhibition rate (%)=inhibition rate) (%) of 0 (equivalent to the non-treated area) to 100 (complete kill)
(§5) Soil was put into a 1/300,000 ha pot, and seeds of large crabgrass (Digitaria sanquinalis L.) were sown. On the day after seeding, predetermined amounts of SC containing metobromuron as active ingredient (same as in Test Example 1) and EC containing pendimethalin as active ingredient (same as in Test Example 10) were diluted with water corresponding to 1,000 L per hectare and applied for soil treatment.
On the 27th day after treatment, the state of growth of large crabgrass was visually observed and evaluated in the same manner as in Test Example 1.

[2] = test system: Nepalese Smartweed (Persicaria nepalensis (Meisn.) H. Gross); assay: Test Example 6: adzuki bean field, soil treatment, metobromuron + S-metolachlor; details: 1000 g/ha, soil treatment, adzuki bean field, 39th day after treatment, read-out: Growth inhibition rate of Nepalese Smartweed (%) Measured value
From the text: as §1, §2, §4
In an adzuki bean agricultural field (9.6 square meters per one test section), predetermined amounts of SC containing metobromuron as active ingredient (same as in Test Example 1) and EC containing S-metolachlor as active ingredient (same as in Test Example 2) were diluted with water corresponding to 1,000 L per hectare and applied for soil treatment, prior to germination of adzuki bean and weeds.
On the 39th day after treatment, the state of growth of Nepalese Smartweed (Persicaria nepalensis (Meisn.) H. Gross) which occurred naturally, was visually observed and evaluated in the same manner as in Test Example 1.

[3] = test system: redroot pigweed (Amaranthus retroflexus L.); assay: Test Example 9: corn field, soil treatment, metobromuron + S-metolachlor; details: 1000 g/ha, soil treatment, corn field, 49th day after treatment, read-out: Growth inhibition rate of redroot pigweed (%) Measured value
From the text: as §1, §2, §3
On the 49th day after treatment, the state of growth of redroot pigweed (Amaranthus retroflexus L.) which occurred naturally, was visually observed and evaluated in the same manner as in Test Example 1.

[4] = test system: spotted knotweed (Polygonum lapathifolium L.); assay: Test Example 2: soybean field, soil treatment, metobromuron + S-metolachlor; details: Persicaria lapathifolia; 1000 g/ha; soil treatment, soybean field; 50th day after treatment; read-out: Growth inhibition rate of spotted knotweed (%) Measured value
From the text: as §1, §2, §3
On the 50th day after treatment, the state of growth of spotted knotweed was visually observed and evaluated in the same manner as in Test Example 1.

[5] = test system: common lambsquarters (Chenopodium album L.); assay: Test Example 8: corn field, soil treatment, metobromuron + S-metolachlor; details: 1000 g/ha, soil treatment, corn field, 28th day after treatment, read-out: Growth inhibition rate of common lambsquarters (%) Measured value
From the text: as §1, §2, §3
On the 28th day after treatment, the state of growth of common lambsquarters (Chenopodium album L.) which occurred naturally, was visually observed and evaluated in the same manner as in Test Example 1.

[6] = test system: Nepalese Smartweed (Persicaria nepalensis (Meisn.) H. Gross); assay: Test Example 3: soybean field, soil treatment, metobromuron + S-metolachlor; details: 1000 g/ha, soil treatment, soybean field, 50th day after treatment, read-out: Growth inhibition rate of Nepalese Smartweed (%) Measured value
From the text: as §1, §2, §3
On the 50th day after treatment, the state of growth of Nepalese Smartweed (Persicaria nepalensis (Meisn.) H. Gross) which occurred naturally, was visually observed and evaluated in the same manner as in Test Example 1.

[7] = test system: annual bluegrass (Poa annua L.); assay: Test Example 19: pot, soil treatment, metobromuron + chlorpropham; details: 250 g/ha, soil treatment, pot, 26th day after treatment, read-out: Growth inhibition rate of annual bluegrass (%) Measured value
[8] = test system: barnyardgrass (Echinochloa crus-galli L.); assay: Test Example 32: pot, soil treatment, metobromuron + chlorpropham; details: soil treatment, pot, 26th day after treatment, read-out: Growth inhibition rate of barnyardgrass (%) Measured value
From the text: as §1, §2, §4
as §5, with “barnyardgrass (Echinochloa crus-galli” for “large crabgrass (Digitaria sanquinalis”, “chlorpropham” for “pendimethalin”, “1)” for “10)”
(§6) On the 26th day after treatment, the state of growth of barnyardgrass was visually observed and evaluated in the same manner as in Test Example 1.

[9] = test system: black nightshade (Solanum nigrum L.); assay: Test Example 17: pot, soil treatment, metobromuron + chlorpropham; details: soil treatment, pot, 21st day after treatment, read-out: Growth inhibition rate of black nightshade (%) Measured value
From the text: as §1, §2, §4
as §5, with “barnyardgrass (Echinochloa crus-galli” for “large crabgrass (Digitaria sanquinalis”, “chlorpropham” for “pendimethalin”, “1)” for “10)”
(§7) On the 21st day after treatment, the state of growth of barnyardgrass was visually observed and evaluated in the same manner as in Test Example 1.
The test was carried out in the same manner as in Test Example 15 except that barnyardgrass (Echinochloa crus-galli L.) was changed to black nightshade (Solanum nigrum L.), to obtain the results as shown in Table 18.

[10] = test system: barnyardgrass (Echinochloa crus-galli L.); assay: Test Example 15: pot, soil treatment, metobromuron + chlorpropham; details: 750 g/ha, soil treatment, pot, 21st day after treatment, read-out: Growth inhibition rate of barnyardgrass (%) Measured value
From the text: as §1, §2, §4
(§8) Soil was put into a 1/300,000 ha pot, and seeds of barnyardgrass (Echinochloa crus-galli L.) were sown. […]
as §7

[11] = test system: giant foxtail (Setaria faberi Herrm.); assay: Test Example 16: pot, soil treatment, metobromuron + chlorpropham; details: soil treatment, pot, 21st day after treatment, read-out: Growth inhibition rate of giant foxtail (%) Measured value
From the text: as §1, §2, §4
as §5, with “barnyardgrass (Echinochloa crus-galli” for “large crabgrass (Digitaria sanquinalis”, “chlorpropham” for “pendimethalin”, “1)” for “10)”
as §7
The test was carried out in the same manner as in Test Example 15 except that barnyardgrass (Echinochloa crus-galli L.) was changed to giant foxtail (Setaria faberi Herrm.), to obtain the results as shown in Table 17.

[12] = test system: barnyardgrass (Echinochloa crus-galli L.); assay: Test Example 18: pot, soil treatment, metobromuron + chlorpropham; details: 500 g/ha, soil treatment, pot, 26th day after treatment, read-out: Growth inhibition rate of barnyardgrass (%) Measured value
From the text: as §1, §2, §4, §8, §6

[13] = test system: common lambsquarters (Chenopodium album L.); assay: Test Example 20: pot, soil treatment, metobromuron + chlorpropham; details: soil treatment, pot, 26th day after treatment, read-out: Growth inhibition rate of common lambsquarters (%) Measured value
From the text: as §1, §2, §4
as §5, with “barnyardgrass (Echinochloa crus-galli” for “large crabgrass (Digitaria sanquinalis”, “chlorpropham” for “pendimethalin”, “1)” for “10)”
as §6
The test was carried out in the same manner as in Test Example 18 except that barnyardgrass (Echinochloa crus-galli L.) was changed to common lambsquarters (Chenopodium album L.), to obtain the results as shown in Table 21.

[14] = test system: barnyardgrass (Echinochloa crus-qalli L.); assay: Test Example 1: soybean field, soil treatment, metobromuron + chlorpropham; details: 916 g/ha, soil treatment, soybean field, 19th day after treatment, read-out: Growth inhibition rate of barnyardgrass (%) Measured value
From the text: When the herbicidal activity in a case where two active ingredients are combined, is larger than the simple sum of the respective herbicidal activities of the two active ingredients (the expected activity), it is called a synergistic effect. The activity expected by the combination of two active ingredients can be calculated as follows (Colby S. R., “Weed”, vol. 15, p. 20-22, 1967). E=α+β−(α×β[…]) where α: growth inhibition rate when treated with x (g/ha) of herbicide X, • β: growth inhibition rate when treated with y (g/ha) of herbicide Y, • E: growth inhibition rate expected when treated with x (g/ha) of herbicide X and y (g/ha) of herbicide Y. […]
as §2, with “2. […]” for “2.”

[15] = test system: large crabgrass (Diqitaria sanquinalis L.); assay: Test Example 11: corn field, foliar treatment, metobromuron + nicosulfuron; details: Digitaria sanguinalis; 30 g/ha; foliar treatment at 1.5 to 2.0 leaf stage, corn field; 30th day after treatment; read-out: Growth inhibition rate of large crabgrass (%) Measured value
From the text: as §1, §2, §3
On the 30th day after treatment, the state of growth of large crabgrass was visually observed and evaluated in the same manner as in Test Example 1.

[16] = test system: common purslane (Portulaca oleracea L.); assay: Test Example 12: corn field, soil treatment, metobromuron + nicosulfuron; details: 30 g/ha, soil treatment, corn field, 30th day after treatment, read-out: Growth inhibition rate of common purslane (%) Measured value
From the text: as §1, §2, §3
On the 30th day after treatment, the state of growth of common purslane (Portulaca oleracea L.) which occurred naturally, was visually observed and evaluated in the same manner as in Test Example 1.

CCC(CC)Nc1c([N+](=O)[O-])cc(C)c(C)c1[N+](=O)[O-] [Pendimethalin, N-(1-ethylpropyl)-2,6-dinitro-3,4-xylidine]
inhibition at 600 g/ha (polygonaceae weeds): 73%
inhibition at 62.5 g/ha [1]: 70%

CCc1cccc(C)c1N(C(=O)CCl)[C@@H](C)COC [S-Metolachlor, 2-chloro-N-(6-ethyl-o-tolyl)-N-[(1S)-2-methoxy-1-methylethyl]acetamide]
inhibition at 1000 g/ha [2]: 75%
inhibition at 1000 g/ha [3]: 45%
inhibition at 1000 g/ha [4]: 59%
inhibition at 1000 g/ha [5]: 69%
inhibition at 1000 g/ha [6]: 10%

CC(C)OC(=O)Nc1cccc(Cl)c1 [Chlorpropham, isopropyl 3-chlorocarbanilate]
inhibition at 250 g/ha [7]: 10%
inhibition at 125 g/ha ([8]; 125 g/ha): 10%
inhibition at 250 g/ha ([8]; 250 g/ha): 0%
inhibition at 500 g/ha ([8]; 500 g/ha): 70%
inhibition at 750 g/ha ([9]; 750 g/ha): 0%
inhibition at 1000 g/ha ([9]; 1000 g/ha): 0%
inhibition at 750 g/ha [10]: 0%
inhibition at 750 g/ha ([11]; 750 g/ha): 0%
inhibition at 1000 g/ha ([11]; 1000 g/ha): 0%
inhibition at 500 g/ha [12]: 70%
inhibition at 125 g/ha ([13]; 125 g/ha): 20%
inhibition at 250 g/ha ([13]; 250 g/ha): 30%
inhibition at 1000 g/ha ([13]; 1000 g/ha): 50%
inhibition at 916 g/ha [14]: 8%

COc1cc(OC)nc(NC(=O)NS(=O)(=O)c2ncccc2C(=O)N(C)C)n1 [Nicosulfuron, 2-[(4,6-dimethoxypyrimidin-2-ylcarbamoyl)sulfamoyl]-N,N-dimethyl nicotinamide]
inhibition at 30 g/ha [15]: 10%
inhibition at 30 g/ha [16]: 55%
